From US7635693B2, “Methods for preventing and treating cancer using N-thiolated β-lactam compounds and analogs thereof” (University of South Florida, priority 2002, dated 2009)
Like-named read-outs stand apart in the source and are kept apart here.

What was measured:
caspase-3 = conditions: 50 μM, up to 48 hours
Protocol: (§1) (FIG. 19A) MTT assay. (FIG. 19B) Cell-free caspase-9 activity assay. A protein extract (20 μg) is incubated with 20 μM Ac-LEHD-AFC (the specific caspase-9 substrate) in a 96-well plate at 37° C. for 2 h. After incubation, the liberated florescent AFC groups are measured by Wallac Victor 1420 Multilabel counter with 405/535 nm filters. […] Both intact and active forms of caspase-3 are indicated. […] Both detached and attached populations of Va-13 or WI-38 cells are collected, and used for nuclear staining assay with DNA staining dye Hoechst 33342.

caspase-9 = conditions: 50 μM, up to 48 hours
Protocol: as §1

p38 MAP kinase = test: p38 phosphorylation, Western blot, Jurkat T cells; type: cell-based, human
Text: It has been shown that multiple stimuli including DNA damaging agents induce apoptosis via activation of p38 MAP kinase (Kummer J L, et al., 1997, Apoptosis induced by withdrawal of trophic factors is mediated by p38 mitogen-activated protein kinase. J. Biol Chem 272:20490-4; Sanchez-Prieto R, et al., 2000, A role for the p38 mitogen-acitvated protein kinase pathway in the transcriptional activation of p53 on genotoxic stress by chemotherapeutic agents. Cancer Res 60:2464-72). […] The levels of Tyr-182 phosphorylated p38 protein were increased by 3-fold at 2 h and reached its maximum (˜9-fold) by 6 h (FIG. 8A). In has been shown that dual phosphorylation of p38 on Tyr-182 and Thr-180 activates this kinase (Raingeaud J, et al., 1995, Pro-inflammatory cytokines and environmental stress cause p38 mitogen-activated protein kinase activation by dual phosphorylation on tyrosine and threonine. J Biol Chem 270:7420-6). […] Therefore, lactam 1-induced DNA damage triggered activation of p38 before S population accumulation and apoptosis induction.

Jurkat T cells [1] = test: TUNEL assay (DNA strand breaks), Jurkat T cells; type: cell-based, human; conditions: 50 μM
Protocol: Terminal deoxynucleotidyl transferase-mediated UTP nick end labeling (TUNEL) was performed to determine the extent of DNA strand breaks. TUNEL assay was performed with an APO-Direct kit per the manufacturer's instructions. In brief, cells are fixed in 1% paraformaldehyde and ethanol at […] overnight and then permeabilized with Proteinase K. After permeabilization, Fluorescein conjugated dNTP's and TdT enzyme (Terminal Deoxynucleotidyl Transferase) are added to the cells. The TdT enzyme is then able to label free ends of DNA with Fluorescein conjugated dNTPs that could then be detected by flow cytometry.
The assay was performed following manufacturer's instruction using the APO-Direct kit. In brief, the harvested cells were fixed in 1% paraformaldehyde for 15 min on ice, washed with PBS, and then fixed again in 70% ethanol at −20° C. overnight. The cells were then incubated in DNA labeling solution (containing terminal deoxynucleotidyl transferase (TdT) enzyme, fluorescein-conjugated dUTP and reaction buffer) for 90 min at 37° C. After removing the DNA labeling solution by rinsing cells with Rinsing Buffer, the cells were incubated with the Propidium Iodide/RNase A solution, incubated for 30 min at room temperature in the dark, and then analyzed by flow cytometry within 3 h of staining.

Jurkat T cells [2] = conditions: 50 μM, cited from earlier work
PARP [3] = conditions: YT cells
Protocol: Human Jurkat T cells and human prostate cancer LNCaP cells were cultured in RPMI 1640 medium, supplemented with 10% fetal bovine serum, 100 units/ml penicillin, and 100 μg/ml streptomycin. Human YT cells were cultured in RPMI 1640 medium supplemented with 1 mM MEM sodium pyruvate solution, 0.1 mM MEM non-essential amino acids solution, 10% fetal bovine serum, 100 units/ml penicillin, and 100 μg/ml streptomycin. All cell lines were maintained at 37° C. in a humidified incubator with an atmosphere of 5% CO2. […] Briefly, cells were harvested, washed with PBS and homogenized in a lysis buffer (50 mM Tris-HCl, pH 8.0, 5 mM EDTA, 150 mM NaCl, 0.5% NP-40, 0.5 mM phenylmethylsulfonyl fluoride, and 0.5 mM dithiothreitol) for 30 min at 4° C. Afterwards, the lysates were centrifuged at 12000×g for 15 min at 4° C. and the supernatants collected as whole-cell extracts. Equal amounts of protein extract (60 μg) were resolved by SDS-polyacrylamide gel electrophoresis and transferred to a nitrocellulose membrane (Schleicher & Schuell, Keene, N. H.) using a Semi-Dry Transfer System (Bio-Rad, Hercules, Calif.). The enhanced chemiluminescence Western blot analysis was then performed using specific antibodies to the proteins of interest.

PC-3 cells = conditions: PC-3, 50 μM, 48 hour
Protocol: (§2) To assay nuclear morphology, both the detached or remaining attached solid tumor cells were washed with PBS, fixed with 70% ethanol for 1 hour, and stained with Hoechst 33342 (50 μM) for 30 minutes. The nuclear morphology of cells was visualized by a fluorescence microscope.
(§3) Both attached and detached cell populations were then used for detection of apoptotic nuclear changes.

MDA-MB-231 cells = conditions: MDA-MB-231, 50 μM, 48 hour
Protocol: as §2, §3

VA-13 cells = conditions: detached VA-13 cells, 50 μM
Protocol: as §1, §2

WI-38 cells = conditions: 50 μM
Protocol: as §1, §2

cytochrome C = conditions: Jurkat T cells, 50 μM, 2 to 4 hours
Protocol: At each time point, cells were washed twice with PBS, resuspended in a hypotonic buffer containing 20 mM HEPES (pH 7.5), 1.5 mM MgCl2, 5 mM KCl and 1 mM DTT, and incubated on ice for 10 min. The cells are dounced 30 times, and the lysate is centrifuged at 2,000×g for 10 min. The supernatant is collected and centrifuged again at the same condition. The resulting supernatant is then centrifuged at 20,500×g for 30 min, followed by collection of both the supernatant (cytosol) and pellet fractions. The pellet is washed twice with a buffer containing 210 mM mannitol, 70 mM sucrose, 5 mM Tris-HCl (pH 7.5) and 1 mM EDTA, and resuspended in the lysis buffer as the mitochondria fraction.

PARP [4] = test: PARP cleavage, Western blot, Jurkat T cells; type: cell-based, human
Text: A library of β-lactam analogs was screened for their ability to induce apoptosis. […] This is followed by preparation of cell lysates and measurement of apoptosis-specific caspase-3 activation (by cell-free caspase-3 activity assay) and PARP cleavage (by Western blotting).

COC1C(=O)N(SC)C1c1ccccc1Cl (racemic) [lactam 1]
processing and activation of caspase-3 (caspase-3; VA-13 cells): detected only in the transformed, but not normal, human cells
processing and activation of caspase-3 (caspase-3; WI-38 cells): detected only in the transformed, but not normal, human cells
cell-free caspase-9 activity (caspase-9; VA-13 cells): activated cell-free caspase-9 activity
cell-free caspase-9 activity (caspase-9; WI-38 cells): no caspase-9 activation was detected
increase of Tyr-182 phosphorylated p38 protein (p38 MAP kinase; 50 μM, 2 h): 3 fold
increase of Tyr-182 phosphorylated p38 protein (maximum) (p38 MAP kinase; 50 μM, 6 h): ~9 fold
levels of total p38 protein (p38 MAP kinase; 50 μM, up to 12 hours): remained relatively unchanged
normalized increase in phosphorylation of p38 over control (p38 MAP kinase; FIG. 8D): 5.9 fold
DNA strand breaks (TUNEL) (Jurkat T cells [1]; 1 hour): did not induce DNA strand breaks
cell population positive for DNA strand breaks (TUNEL) (Jurkat T cells [1]; 2 hour): more than half of the cell population
TUNEL-positive cells (Jurkat T cells [1]; 24 h): 66%
sub-G1 population (Jurkat T cells [2]; 12 h (Smith et al., 2002)): 10%
sub-G1 population (Jurkat T cells [2]; 24 h (Smith et al., 2002)): 16%
PARP cleavage (PARP [3]; 30 μM, 3, 6, or 24 h): no PARP cleavage was observed
PARP cleavage (PARP [3]; at even 50 μM, 24 h): no PARP cleavage was detectable
nuclear morphology of detached cells (Hoechst 33342) (PC-3 cells): apoptosis-specific nuclear morphology
nuclear morphology of detached cells (Hoechst 33342) (MDA-MB-231 cells): apoptosis-specific nuclear morphology
nuclear morphology (Hoechst 33342) (VA-13 cells): apoptotic nuclear condensation and fragmentation
nuclear morphology (Hoechst 33342) (WI-38 cells): remained attached with normal nuclei
levels of cytosolic cytochrome C (cytochrome C): significantly increased
levels of mitochondrial cytochrome C (cytochrome C): decreased
PARP cleavage (PARP [4]; 10 μM, 24 h): induced apoptosis-specific PARP cleavage fragment p85
levels of PARP cleavage fragment p85 (PARP [4]; 25 μM, 24 h): further increased
time at which PARP cleavage was first detected (PARP [4]; 30 μM): 3 h
time at which PARP cleavage fragment p85 appears (PARP [4]; 50 μM): 4 h
PARP cleavage (PARP [4]; 50 μM, 8 hours): greatest potency
level of PARP cleavage relative to that by 50 μM of lactam 47 (PARP [4]; 50 μM, 12 h): ~50%
PARP degradation (PARP [4]; 50 μM, 24 h): PARP degradation was further increased
p85 PARP fragment (PARP [4]; 8 hours, 20 μM): Low levels
p85 PARP fragment (PARP [4]; 8 hours, 50 μM): significantly increased
intact PARP protein and p85 PARP fragment (PARP [4]; 8 hours, 60 μM): almost complete degradation
p85 PARP fragment (PARP [4]; 8 hours, 30 and 40 μM): further increased
